Assay results from patent US8716180B2 (priority 2005, dated 2014).
Read-outs that look alike come from different tables or passages of the source.

System: GFP genetically modified strain of F. graminearum
Assay type: in vivo, Fusarium graminearum
Conditions: seed treatment 5 g a.i./100 kg seeds

Measured: Intensity of F. graminearum (PCR analysis: 0 to 4 scale)

N#Cc1c[nH]cc1-c1cccc2c1OC(F)(F)O2 [Lot B, fludioxonil]
0: Beginning of earing (GS 51), 1st internode | Beginning of earing (GS 51), 2nd internode | Beginning of earing (GS 51), 3rd internode | Beginning of earing (GS 51), 4th internode | Beginning of earing (GS 51), ear | Ear 1-2 cm (GS 31), First internode | Ear 1-2 cm (GS 31), Future internodes and ear | Ear 1-2 cm (GS 31), Second internode | End of tillering (GS 29), Above bottom of the plant (0.5 cm) | End of tillering (GS 29), Bottom of the plant (0.5 cm) | End of tillering (GS 29), Secondary roots | End of tillering (GS 29), primary roots | End of tillering (GS 29), rhizome | Full maturity (GS 94), 1st internode | Full maturity (GS 94), 2nd internode | Full maturity (GS 94), 3rd internode | Full maturity (GS 94), 4th internode | Full maturity (GS 94), 5th internode | Full maturity (GS 94), Ear + grains
